Measured values reported in patent US20250313560A1, “Novel bicyclic benzylamido pyridine derivatives as SOS1 inhibitors” (Boehringer Ingelheim International GmbH, priority 2024, published 2025).
Like-named read-outs stand apart in the source and are kept apart here.

Key:
SOS1 and KRAS G12D = SOS1 and KRAS G12D (Homo sapiens (Human), UniProt Q07889); test: KRAS::SOS1 AlphaScreen binding assay (KRAS G12D); conditions: average of at least two measurements
Protocol: (§1) Low IC50 values are indicative of high potency of the SOS1 inhibitor compound in this assay setting:
(§2) • GST-tagged SOS1 (564_1049_GST_TEV_ECO) produced in-house • 6xHis-Tev-K-RasG12D/G12C(1-169)Avi produced in-house • GDP (Sigma Cat No G7127) • AlphaLISA Glutathione Acceptor Beads (PerkinElmer, Cat No AL109) • AlphaScreen Streptavidin Donor Beads (PerkinElmer Cat No 6760002) • Assay plates: Proxiplate-384 PLUS, white (PerkinElmer, Cat No 6008289)
(§3) [formula] • KRAS::SOS1 GDP mix: • 7.5 nM (final assay concentration) K-RasG12C, 10 nM (final assay concentration) K-RasG12D, 10 μM (final assay concentration) GDP and 5 nM (final assay concentration) GST-SOS1 are mixed in assay buffer prior to use and kept at rt. Bead mix: • AlphaLISA Glutathione Acceptor Beads and AlphaScreen Streptavidin Donor Beads are mixed in the dark in assay buffer at a concentration of 10 μg/mL (final assay concentration) each prior to use and kept at rt.
(§4) Compounds are diluted to a final start concentration of 100 μM and are tested in duplicate. Assay-ready plates (ARPs) are generated using an Access Labcyte Workstation with a Labcyte Echo 550 or 555 acoustic dispenser. For compound a start concentration of 100 μM, 150 nL of compound solution is transferred per well in 11 concentrations in duplicate with serial 1:5 dilutions.
(§5) The assay is run using a fully automated robotic system in a darkened room below 100 Lux. 10 μL of KRAS::SOS1 GDP mix is added into columns 1-24 to the 150 nL of compound solution (final dilution in the assay 1:100, final DMSO concentration 1%).
(§6) After a 30 minute incubation time, 5 μL of bead mix is added into columns 1-23. Plates are kept at rt in a darkened incubator. After a further 60 minutes incubation, the signal is measured using a PerkinElmer Envision HTS Multilabel Reader using the AlphaScreen specifications from PerkinElmer. Each plate contains the following controls:
(§7) diluted DMSO+KRAS::SOS1 GDP mix+bead mix
(§8) diluted DMSO+KRAS::SOS1 GDP mix
(§9) Result calculation: IC50 values are calculated and analyzed using a 4 parametric logistic model.
(§10) Table 1: Inhibition values for KRAS G12C as well as for KRAS G12D. […] The value indicates an average value of at least two measurements.

human hepatocytes = test: Metabolic stability in human hepatocytes; conditions: 1 μM test compound, 50% human serum, percentage of liver blood flow
SOS1 and KRAS G12C = SOS1 and KRAS G12C (Homo sapiens (Human), UniProt Q07889); test: KRAS::SOS1 AlphaScreen binding assay (KRAS G12C); conditions: average of at least two measurements
Protocol: as §1, §2, §3, §4, §5, §6, §7, §8, §9, §10

P450 3A4 = P450 3A4 (Homo sapiens (Human), UniProt P08684); test: Cytochrome P450 isoenzyme inhibition assay (P450 3A4, midazolam); type: in vitro ADME; conditions: human liver microsomes, Midazolam as substrate; read-out: CYP3A4 inhibition IC50
Protocol: For the following cytochrome P450 isoenzymes, these substrates and metabolic reactions are monitored: P450 3A4: hydroxylation of Midazolam (MDZ).
The final incubation volume contains TRIS buffer (0.1 M), MgCl2 (5 mM), a certain concentration of human liver microsomes dependent on the P450 isoenzyme measured (P450 3A4: 0.1 mg/ml) and a certain concentration of the individual substrate for each isoenzyme (P450 3A4: Midazolam 5 μM).
The effect of the test compound is determined at five different concentrations in duplicate (e.g. highest concentration 50 μM with subsequent serial 1:4 dilutions) or without test compound (high control). Following a short preincubation period, reactions are started with the cofactor (NADPH, 1 mM) and stopped by cooling the incubation down to 8° C. and subsequently by addition of one volume of ACN. An internal standard solution—usually the stable isotope of the formed metabolite—is added after quenching of incubations. Peak area analyte (=metabolite formed) and internal standard is determined by LC-MS/MS. The resulting peak area ratio analyte to internal standard in these incubations is compared to a control activity containing no test compound. Within each of the assay runs, the IC50 of a positive control inhibitor dependent on the P450 isoenzyme measured (P450 3A4: ketoconazole) is determined. The assay results are plotted against compound concentrations to calculated IC50 values (half maximal inhibitory concentrations) for inhibitory compounds utilizing Software IDBS E-WorkBook.
Table 4: Inhibition of P450 isoenzyme 3A^4.

[1] = system: ERK phosphorylation in NCI-H358 SOS2 KO cells (KRAS G12C); test: Erk phosphorylation assay; type: cell-based, human; conditions: EGF stimulated, average of at least two measurements, read-out: pERK IC50
Protocol: Low IC50 values are indicative of high potency of the SOS1 inhibitor compounds in this assay setting.
ERK phosphorylation assays are performed using the following human cell line: • NCI-H358 SOS2 KO (Hofmann, Gmachl, Ramharter et al, Cancer Discov. 2021, 11(1):142-15): human lung cancer with a KRAS G12C mutation;
NCI-H358 SOS2 KO are seeded at 50000 cells per well in 60 μL of DMEM with 2% FBS, in Greiner TC 384 plates. The cells are incubated overnight in an incubator at 37° C. and 5% CO2 in a humidified atmosphere. 60 nL compound solution (10 mM DMSO stock solution) is then added using a Beckman Coulter Labcyte Echo 550 device. After 50 min incubation in the aforementioned incubator, 5 nl EGF are added to each well for a final concentration of approx. 8 ng/mL using a Beckman Coulter Labcyte Echo 550 device and cells are incubated for another 10-15 minutes before lysis. The medium is removed, and the cells are lysed by addition of 20 μL of 1.6-fold lysis buffer from the AlphaLISA SureFire Ultra pERK1/2 (Thr202/Tyr204) Assay Kit with added protease inhibitors. After 20 minutes of incubation at rt with shaking, 6 μL of each lysate sample is transferred to a 384-well Proxiplate and analyzed for pERK (Thr202/Tyr204) with the AlphaLISA SureFire Ultra pERK1/2 (Thr202/Tyr204) Assay Kit. 3 μL Acceptor Mix and 3 μL Donor Mix are added under subdued light and incubated for 2 h at rt in the dark, before the signal is measured on a Perkin Elmer Envision plate reader using 384 AlphaScreen settings for Proxiplates. Data are fitted by iterative calculation with variable hill slope. The sigmoidal curve slope is fitted using a default fitting curve to ascertain IC50 values.
Table 2: Erk Phosphorylation assay. The value indicates an average value of at least two measurements.

CYP3A4 = CYP3A4 (Homo sapiens (Human), UniProt P08684); test: Mechanism-based inhibition of CYP3A4 assay (MBI 3A4); type: in vitro ADME; conditions: human liver microsomes, midazolam substrate, hydroxy-midazolam formation after 30 min preincubation relative to 0 min; for inhibition at 30 min: human, probe midazolam 15 μM (hydroxy-midazolam formation), read-out: MBI inhibition % ctrl. [%] with MDZ
Protocol: Mechanism-Based Inhibition of CYP3A4 assay (MBI 3A4): The mechanism-based inhibition towards CYP3A4 is assayed in human liver microsomes with midazolam as substrate. The test compounds and water control (wells w/o test compound) are preincubated in presence of NADPH (1 mM) with human liver microsomes (0.2 mg/mL) at a concentration of 0, 5 and 25 μM for 0, 10 and 30 min. After preincubation, the incubate is diluted 1:10 (to 0.02 mg/mL) and the substrate midazolam (15 μM) is added for the main incubation (10 min). The main incubation is quenched with ACN and the formation of hydroxy-midazolam is quantified via LC/MS-MS. The formation of hydroxy-midazolam from the 30 min preincubation relative to the formation from the 0 min preincubation is used as a readout. Values of less than 100% mean that the substrate midazolam is metabolized to a lower extent upon 30 min preincubation compared to 0 min preincubation. In general, low effects upon 30 min preincubation are desired (corresponding to values close to 100%/not different to the values determined with water control).
Table 5: Mechanism-based inhibition of P450 isoenzyme 3A4 with midazolam as substrate.

[2] = Homo sapiens, NCI-H358, NCI-H358 SOS2 KO cells

Chain of SOS1 and KRAS G12C (Q07889 564-1049, stated change not applied): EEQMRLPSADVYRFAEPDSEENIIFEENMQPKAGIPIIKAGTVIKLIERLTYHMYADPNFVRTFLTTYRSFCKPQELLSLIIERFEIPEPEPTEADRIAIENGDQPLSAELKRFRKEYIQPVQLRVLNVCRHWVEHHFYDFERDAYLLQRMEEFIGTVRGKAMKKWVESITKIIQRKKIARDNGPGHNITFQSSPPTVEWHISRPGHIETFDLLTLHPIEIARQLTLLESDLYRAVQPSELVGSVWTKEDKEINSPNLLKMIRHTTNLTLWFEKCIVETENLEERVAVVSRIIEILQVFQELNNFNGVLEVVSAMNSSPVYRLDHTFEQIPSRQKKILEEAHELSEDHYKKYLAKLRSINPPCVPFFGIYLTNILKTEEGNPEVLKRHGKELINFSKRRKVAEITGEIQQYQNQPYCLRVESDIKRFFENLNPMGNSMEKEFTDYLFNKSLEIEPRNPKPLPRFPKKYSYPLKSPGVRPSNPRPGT
Chain of SOS1 and KRAS G12D (Q07889 564-1049, stated change not applied): as above
Chain of CYP3A4 (P08684 whole entry): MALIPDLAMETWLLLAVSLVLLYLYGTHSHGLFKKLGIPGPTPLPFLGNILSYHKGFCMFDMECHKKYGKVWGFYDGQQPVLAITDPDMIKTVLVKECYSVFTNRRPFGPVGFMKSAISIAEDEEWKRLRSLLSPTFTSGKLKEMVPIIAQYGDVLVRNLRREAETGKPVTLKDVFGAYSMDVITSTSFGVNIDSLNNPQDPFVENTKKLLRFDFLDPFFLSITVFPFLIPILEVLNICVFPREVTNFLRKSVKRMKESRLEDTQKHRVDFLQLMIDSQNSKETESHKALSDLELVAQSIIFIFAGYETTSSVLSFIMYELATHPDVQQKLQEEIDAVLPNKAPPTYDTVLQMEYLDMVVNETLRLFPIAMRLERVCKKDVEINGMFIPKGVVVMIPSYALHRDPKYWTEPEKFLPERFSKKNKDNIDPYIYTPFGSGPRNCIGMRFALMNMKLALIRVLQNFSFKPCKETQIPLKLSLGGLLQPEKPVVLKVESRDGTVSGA
Chain of P450 3A4 (P08684 whole entry): as above

Row | Compound | IC50 (SOS1 and KRAS G12D) [nM] | Hepatic clearance - QH[%] in human hepatocytes (human hepatocytes) [%] | IC50 (SOS1 and KRAS G12C) [nM] | IC50 (P450 3A4) [nM] | IC50 ([1]; NCI-H358 SOS2 KO cells) [nM] | MBI inhibition % ctrl. [%] with MDZ (CYP3A4) [%] | IC50 [1, 2] [nM] | inhibition at 30 min (CYP3A4) [%]
1 | C[C@@H](NC(=O)c1cc(N2CCC(N3CC4CC4C3CO)CC2)c2ncnn2c1)c1cccc(C(F)F)c1F (single isomer, unassigned) [Example cis-E11a] | 15 | 38 | 22 | > 50000 | – | – | 173 | –
2 | C[C@@H](NC(=O)c1cc(N2CCC(N3CC4CC4C3CO)CC2)c2ncnn2c1)c1cccc(C(F)F)c1F (single isomer, unassigned) [Example cis-E11b] | 19 | 27 | 28 | > 50000 | 145 | – | – | –
3 | C[C@@H](NC(=O)c1cc(N2CCC(NC3COCC3O)CC2)c2ncnn2c1)c1cccc(C(F)(F)F)c1F (single isomer, unassigned) [Example cis-E41a] | 38 | 37 | 50 | > 50000 | 463 | – | – | –
4 | C[C@@H](NC(=O)c1cc(N2CCC3CCNC3C2)c2ncnn2c1)c1cccc(C(F)(F)F)c1F (single isomer, unassigned) [Example cis-E52a] | 58 | 7 | 59 | > 50000 | 115 | – | – | –
5 | C[C@@H](NC(=O)c1cc(N2CCC(NC3CCCC3(C)O)CC2)c2ncnn2c1)c1cccc(C(F)(F)F)c1F (single isomer, unassigned) [Example trans-E53a] | 24 | 45 | 24 | > 50000 | 143 | – | – | –
6 | C[C@@H](NC(=O)c1cc([C@H]2CC[C@H](N3CCC(F)C(O)C3)CC2)c2ncnn2c1)c1cccc(C(F)(F)F)c1F (single isomer, unassigned) [Example trans-E70a] | 34 | 25 | 29 | > 50000 | – | – | 259 | –
7 | C[C@@H](NC(=O)c1cc(N2CC3CCC(C2)N3C)c2nncn2c1)c1cccc(C(F)(F)F)c1F [Example E76] | 36 | – | 49 | > 50000 | – | – | 230 | 84
8 | CC(C)N1CC=C(c2cc(C(=O)N[C@H](C)c3cccc(C(F)(F)F)c3F)cn3cnnc23)CC1 [Example E83] | 26 | – | 30 | > 50000 | – | – | 132 | 86

Further lines, with some results ahead:

Row | IC50 (SOS1 and KRAS G12D) [nM] | Hepatic clearance - QH[%] in human hepatocytes (human hepatocytes) [%] | IC50 (SOS1 and KRAS G12C) [nM] | IC50 (P450 3A4) [nM] | IC50 ([1]; NCI-H358 SOS2 KO cells) [nM] | MBI inhibition % ctrl. [%] with MDZ (CYP3A4) [%] | IC50 [1, 2] [nM] | Compound | inhibition at 30 min (CYP3A4) [%]
9 | 28 | 13 | 39 | > 50000 | 94 | – | – | C[C@@H](NC(=O)c1cc(N2CCC(N3CCCC(O)CC3)CC2)c2ncnn2c1)c1cccc(C(F)F)c1F (single isomer, unassigned) [Example E17a] | –
10 | 35 | – | 34 | > 50000 | 101 | 94 | – | C[C@@H](NC(=O)c1cc(N2CCC(N3CCCC(O)CC3)CC2)c2ncnn2c1)c1cccc(C(F)(F)F)c1F (single isomer, unassigned) [Example E43b] | –
11 | 54 | 21 | 52 | > 50000 | – | – | 288 | C[C@@H](NC(=O)c1cc(N2CCC(N(C)CC3(O)CC3)CC2)c2ncnn2c1)c1cccc(C(F)F)c1F [Example E13] | –
12 | 51 | 31 | 69 | > 50000 | – | – | 490 | C[C@@H](NC(=O)c1cc(N2CCC(N3CCO[C@H](CO)C3)CC2)c2ncnn2c1)c1cccc(C(F)F)c1F [Example E14] | –
13 | 46 | 31 | 68 | > 50000 | – | – | 554 | C[C@@H](NC(=O)c1cc(N2CCC(N3CCO[C@@H](CO)C3)CC2)c2ncnn2c1)c1cccc(C(F)F)c1F [Example E15] | –
14 | 73 | 15 | 80 | > 50000 | – | – | 326 | C[C@@H](NC(=O)c1cc(N2CCC(N3CCC4(CC4)C3)CC2)c2ncnn2c1)c1cccc(C(F)(F)F)c1F [Example E33] | –
15 | 43 | 23 | 49 | > 50000 | – | – | 250 | C[C@@H](NC(=O)c1cc(N2CCC(N3CCCCC3)CC2)c2ncnn2c1)c1cccc(C(F)(F)F)c1F [Example E49] | –
